Data published in PubChem BioAssay (NCI).
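Following 48 hours of exposure in 96-well plates, responses at five concentrations were used to interpolate endpoints linearly. GI50: concentration for 50% inhibition of growth. TGI marks complete inhibition of growth.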

Key:
Assay in all cases: NCI anticancer screen, dose series, 48 h
[1] = tested on: BT-549 breast
[2] = tested on: HCT-116 colon
[3] = tested on: HS 578T breast
[4] = tested on: IGROV1 ovarian
[5] = tested on: NCI-H460 lung
[6] = tested on: SF-539 CNS
[7] = tested on: SK-MEL-28 melanoma
[8] = tested on: SNB-75 CNS
[9] = tested on: SR leukemia
[10] = tested on: T-47D breast

SMILES | GI50 [1] [µM] | TGI [1] [µM] | GI50 [2] [µM] | TGI [2] [µM] | GI50 [3] [µM] | TGI [3] [µM] | GI50 [4] [µM] | TGI [4] [µM] | GI50 [5] [µM] | TGI [5] [µM] | GI50 [6] [µM] | TGI [6] [µM] | GI50 [7] [µM] | TGI [7] [µM] | GI50 [8] [µM] | TGI [8] [µM] | GI50 [9] [µM] | TGI [9] [µM] | GI50 [10] [µM] | TGI [10] [µM]
O=C1CC[C@H](N2C(=O)c3cccc4c(Cc5ccc(CN6CCOCC6)cc5)ccc2c34)C(=O)N1 | 17.3 | > 100 | 33.6 | > 100 | 46.8 | > 100 | > 100 | > 100 | 35.2 | > 100 | > 100 | > 100 | 75.1 | > 100 | 2.56 | > 100 | 4.03 | > 100 | 10.7 | > 100
C=C(C)[C@@H]1CC[C@]2(COCCC#N)CC[C@]3(C)[C@H](CC[C@@H]4[C@@](C)(CCCNCCC#N)[C@H](C(=C)C)CC[C@]43C)[C@@H]12 | 24.3 | > 50 | 7.25 | 13.8 | 21.1 | > 50 | 13.1 | > 50 | 13.2 | > 50 | 9.78 | 20.4 | 9.26 | 18 | > 50 | > 50 | 8.48 | 42.3 | 8.71 | > 50
Nc1ccccc1NC(=O)c1ccc(CNc2nccc(-c3cccnc3)n2)cc1 | 1.9 | 14.8 | 0.362 | > 100 | 1.06 | > 100 | 2.36 | > 27.7 | 1.15 | 97 | 0.805 | 13.1 | 0.691 | 3.15 | 1.43 | > 25.4 | 0.268 | – | 0.657 | > 22.8
Cc1cc(=O)[nH]c(N/N=C/c2cc(Br)ccc2O)n1 | 11 | > 100 | 0.353 | > 100 | 7.1 | > 100 | 0.257 | 0.706 | 0.488 | 20.5 | 2.78 | 39 | 4.55 | > 100 | 3.33 | > 100 | 0.896 | > 100 | 0.437 | 56.7
Cn1cc(C2=C(c3ccccc3[N+](=O)[O-])C(=O)NC2=O)c2ccccc21 | 5.26 | > 20.2 | 1.38 | > 25 | 0.975 | > 16.9 | 6.9 | > 19.5 | 4.85 | > 25 | 2.61 | 10.1 | 6.24 | 20.1 | 0.0705 | 2.39 | 2.33 | 12.9 | 7.52 | 23.5
Cc1cc(Nc2ccc(OCc3ccccc3)cc2)nc2cc(O)ccc12 | 5.46 | 21 | 4 | 14.6 | 10.2 | 29.2 | 10.6 | 26.3 | 3.09 | 10.2 | 2.08 | 4.93 | 2.95 | 8.19 | 2.4 | 11.2 | 3.26 | 13.8 | 5.93 | 23.2
CC1(C)N=C(N)N=C(N)N1c1ccc(CCCCc2ccccc2)c(Cl)c1 | 0.161 | 5.19 | < 0.01 | 1.61 | 4.49 | 39.4 | < 0.0185 | 2.34 | < 0.0129 | 4.04 | 0.121 | 5.14 | 0.53 | 13.4 | 0.124 | 5.87 | 0.0259 | 5.81 | 0.499 | 12.8
CO/C=C/C(=O)c1cc2cnc3c(=N)cc(NC(=O)C(C)C)c([nH]1)c23 | 0.0236 | 0.258 | 0.0585 | 0.282 | 0.0195 | 0.188 | 0.0187 | 0.138 | 0.323 | 11.4 | 0.0596 | 0.333 | 0.0587 | 0.509 | 0.00763 | 0.0982 | 0.0489 | 0.427 | 0.00998 | 0.0439
CN(C)c1ccc(/C=C/c2ccnc3c(O)cccc23)cc1 | 1.01 | > 100 | 0.401 | > 100 | 0.85 | > 100 | 0.389 | > 100 | 0.363 | > 100 | 0.344 | 3.33 | 0.624 | > 100 | 0.372 | 36.6 | 0.321 | > 100 | 0.375 | > 100
Cc1cccc(-c2[nH]ncc2-c2ccc3ncccc3n2)n1 | > 25 | > 25 | 7.78 | > 25 | > 14.5 | > 25 | 13 | > 25 | 8.76 | > 25 | 17.4 | > 25 | 13.3 | > 25 | 5.74 | > 23.9 | 9.2 | > 25 | 7.07 | > 23.9
Cc1ccc(NC(=O)c2ccc(CN3CCN(C)CC3)cc2)cc1Nc1nccc(-c2cccnc2)n1 | 16.6 | 34.9 | 13.2 | 42.6 | 15 | 43.1 | 20.5 | 45.7 | 16.8 | 37.1 | 8.06 | 22.4 | 15.1 | 29.6 | 18.7 | 34.2 | 4.72 | > 51.3 | 16.9 | 49.6
Cc1cc(Cl)cc2c(N=Nc3ccc(S(N)(=O)=O)cc3)c(O)[nH]c12 | > 25 | > 25 | > 25 | > 25 | > 25 | > 25 | > 25 | > 25 | > 25 | > 25 | > 25 | > 25 | > 25 | > 25 | > 15.6 | > 25 | > 25 | > 25 | > 25 | > 25
Cc1c(O)c2ccccc2oc1=O | – | > 100 | – | > 100 | – | > 100 | – | > 100 | – | > 100 | – | > 100 | – | > 100 | – | > 100 | – | > 100 | – | > 100
